# Experimental data published in patent US20250320496A1, “MODULATION OF ABCB11 GENE TRANSCRIPTION USING ANTISENSE OLIGONUCLEOTIDES TARGETING REGULATORY RNAS” (CAMP4 Therapeutics Corporation, priority 2022, published 2025).
# Strand notation (5' to 3'): a small letter for the sugar, then the base; units joined by * are phosphorothioate-linked, units joined directly phosphodiester-linked; [ ] holds rarer units or linkages, { } end groups; capitals alone tell only the bases. e = 2'-O-(2-methoxyethyl) (MOE); [5mC] = 5-methylcytosine
# System: human ABCB11 mRNA
# Experiment: ASO treatment of primary human hepatocytes (PHH), ABCB11 mRNA by RT-qPCR normalized to B2M
# Format: cell-based
# Conditions: PHHs, Day 3, normalized to untreated PHHs
# Description: Primary human hepatocytes (PHH) were thawed using Lonza Human Cryopreserved Hepatocyte Thawing Medium and plated in 96-well collagen-coated plates (5.5-6.0×10^4 cells per well). Four hours later, the media was replaced with sterile-filtered QualGro™ Hepatocyte Culture Medium (BioIVT) containing antibiotic supplement, 0.3 mg/ml Matrigel® matrix (Corning®), and ASO at the desired concentration (e.g., 1.25 μM, 2.5 μM, 5 μM, or 10 μM). After 72 hrs., cells were harvested by aspirating media, washing once with phosphate-buffered saline (PBS), and lysed with 150 μl of Buffer RLT lysis buffer (Qiagen®). Plates were frozen at-80° C. during cell lysis. After thawing, total RNA was isolated using the Qiagen RNEasy kit as instructed by manufacturer. cDNA (random-primed) was synthesized from 10 μl of RNA using the LifeTech High Capacity cDNA Reverse Transcription kit. 2 μl of cDNA was used for reverse transcription-quantitative PCR (RT-qPCR) analyses using standard Taqman” reagents from Applied Biosystems™ to measure ABCB11 and CYP7A1 gene expression. Gene expression data was normalized to the housekeeper gene, beta-2-microglobulin (B2M).
# To assess the ability of ASOs targeting ABCB11 regRNAs to modulate the expression of human ABCB11, 195 ASOs targeting the human ABCB11 regRNAs were synthesized. These initial ASOs were screened in PHHs at 5 μM to determine their efficacy in increasing human ABCB11 mRNA using quantitative PCR. This initial screen identified 10 ASOs that induced increased expression of ABCB11 mRNA by more than 1.5-fold (as compared to untreated PHHs).
row,Substance,upregulation of ABCB11 mRNA
1,CO-3974: ASO targeting the paRNA regRNA RR63 (antisense eT*e[5mC]*eT*eG*eG*eA*eA*eA*eA*eT*eA*eA*eT*eG*e[5mC]*e[5mC]*eT*eT*eT*e[5mC]),approximately 1.5 fold
2,CO-3984: ASO targeting the paRNA regRNA RR63 (antisense e[5mC]*eA*eT*eT*eT*eA*eG*eA*eG*eA*e[5mC]*eA*eA*eA*eG*eA*eA*eT*e[5mC]*eG),approximately 1.5 fold
3,CO-3998: ASO targeting the paRNA regRNA RR63 (antisense eA*e[5mC]*e[5mC]*e[5mC]*e[5mC]*e[5mC]*e[5mC]*eT*e[5mC]*eA*e[5mC]*e[5mC]*eT*eT*eG*eGeT*eT*e[5mC]*e[5mC]),approximately 1.5 fold

# Same assay, conditions: primary human hepatocytes, 5 μM ASO, normalized to untreated PHHs (UNT)
row,Substance,ABCB11 mRNA FC (5 μM ASO vs. UNT) [fold change]
1,CO-3974: ASO targeting the paRNA regRNA RR63 (antisense eT*e[5mC]*eT*eG*eG*eA*eA*eA*eA*eT*eA*eA*eT*eG*e[5mC]*e[5mC]*eT*eT*eT*e[5mC]),1.2
2,CO-3984: ASO targeting the paRNA regRNA RR63 (antisense e[5mC]*eA*eT*eT*eT*eA*eG*eA*eG*eA*e[5mC]*eA*eA*eA*eG*eA*eA*eT*e[5mC]*eG),1.111
3,CO-3988 (antisense eA*eA*eA*eT*eG*e[5mC]*e[5mC]*e[5mC]*eA*eA*eG*eT*eT*eT*e[5mC]*eA*eT*eT*eG*e[5mC]),1.827
4,CO-3989 (antisense eA*eA*eG*eA*eT*eG*e[5mC]*eT*eA*e[5mC]*eA*eA*eT*eT*eG*e[5mC]*e[5mC]*eA*eT*eA),1.19
5,CO-3991 (antisense eG*eG*eG*eA*eT*eG*eA*e[5mC]eT*e[5mC]*e[5mC]eT*eA*eA*eA*eA*eA*eT*eG*eG),1.614
6,CO-3992 (antisense eT*eG*eT*eT*eT*e[5mC]*e[5mC]*eT*eA*eG*eT*eA*e[5mC]*e[5mC]*eA*eA*eG*eA*eA*eT),1.388
7,CO-3993 (antisense eG*e[5mC]*e[5mC]*e[5mC]*e[5mC]*eT*eT*eG*eA*eA*eT*eA*eA*eT*eT*eT*eT*eT*eG*eT),1
8,CO-3994 (antisense e[5mC]*e[5mC]*e[5mC]*eA*e[5mC]*eT*e[5mC]*eT*eA*eG*eA*eT*eT*eG*e[5mC]*eA*eA*eG*e[5mC]*e[5mC]),1.988
9,CO-3995 (antisense eG*eT*e[5mC]*eT*eA*eG*eG*eA*eG*e[5mC]*eT*eT*e[5mC]*eT*eG*eT*eT*eT*eA*e[5mC]),1.683
10,CO-3996 (antisense eT*eT*eG*eT*e[5mC]*eT*e[5mC]*eT*eG*eG*eT*eT*eG*eAeA*eG*e[5mC]*e[5mC]*eT*e[5mC]),2.097
11,CO-3997 (antisense eG*e[5mC]*eT*eG*eT*eG*e[5mC]*eT*e[5mC]*eT*eG*eT*eA*eA*e[5mC]*eA*e[5mC]*eT*eG*eT),1.501
12,CO-3998: ASO targeting the paRNA regRNA RR63 (antisense eA*e[5mC]*e[5mC]*e[5mC]*e[5mC]*e[5mC]*e[5mC]*eT*e[5mC]*eA*e[5mC]*e[5mC]*eT*eT*eG*eGeT*eT*e[5mC]*e[5mC]),1.319
13,CO-3999 (antisense eG*eG*e[5mC]*eA*eA*e[5mC]*e[5mC]*eT*e[5mC]*eG*eT*e[5mC]*e[5mC]*e[5mC]*e[5mC]*eT*e[5mC]*eA*e[5mC]*eT),1.076
14,CO-4011 (antisense eT*e[5mC]*e[5mC]*eA*eA*e[5mC]*eA*e[5mC]*e[5mC]*eG*eT*eA*e[5mC]*eT*e[5mC]*eA*eT*eT*eT*e[5mC]),1.184
15,CO-4012 (antisense eG*eA*eA*e[5mC]*eT*eA*e[5mC]*eA*e[5mC]*e[5mC]*eG*eA*e[5mC]*eT*eT*eT*eA*eT*e[5mC]*eT),1.15
16,CO-4013 (antisense eT*eT*eG*eA*eA*eA*eG*e[5mC]*eT*eG*eG*eT*eT*eT*eA*eA*eT*eG*e[5mC]*eA),1.166
17,CO-4014 (antisense eG*eA*eT*e[5mC]*eA*e[5mC]*eA*eA*eA*eT*eT*e[5mC]*eT*eA*e[5mC]*e[5mC]*e[5mC]*eT*eT*eG),1.003

row,Substance,ABCB11 mRNA FC (5 μM ASO vs. UNT) [fold change]
1,CO-4015 (antisense eG*eT*eT*eT*eG*e[5mC]*eT*e[5mC]*eT*eG*eA*eT*eA*eA*eT*e[5mC]*eA*e[5mC]*eA*eG),1.043
2,CO-4016 (antisense eT*eT*eT*eT*eA*eA*e[5mC]*eT*eT*eG*eG*e[5mC]*eT*eT*eT*eG*eT*eG*eA*eA),1.294
3,CO-4017 (antisense e[5mC]*eT*eG*e[5mC]*eT*e[5mC]*eA*eA*eA*eG*eT*eA*eA*eA*eA*eA*eT*eA*e[5mC]*e[5mC]),1.228
4,CO-4018 (antisense eA*eT*eG*eG*e[5mC]*e[5mC]*eG*eA*eA*eT*eA*eG*eA*eT*eT*eG*eA*eA*eT*eA),1.124
5,CO-4019 (antisense eA*eG*eA*eG*eT*eG*eG*eT*eG*eT*eA*e[5mC]*eA*eT*eG*eG*eG*eT*eG*eT),1.028
6,CO-4020 (antisense e[5mC]*eA*eT*eG*eT*eA*eT*e[5mC]*eA*eA*eT*e[5mC]*eT*e[5mC]*eT*eT*eA*eG*eA*eG),1.201
7,CO-4021 (antisense eG*eT*e[5mC]*eT*eT*e[5mC]*eT*eT*eT*eA*eT*eA*eG*e[5mC]*eA*eA*eT*eG*e[5mC]*eT),1.301
8,CO-4022 (antisense eG*eA*eT*eG*eA*e[5mC]*eT*e[5mC]*eT*eT*eG*eG*eT*eT*eG*e[5mC]*eT*eG*eT*e[5mC]),1.168
9,CO-4023 (antisense e[5mC]*eA*e[5mC]*eA*eA*e[5mC]*eA*eT*eT*eG*eT*eA*eT*eA*e[5mC]*eA*eA*eT*eA*e[5mC]),1.092
10,CO-4024 (antisense eA*e[5mC]*eT*eT*eA*e[5mC]*eA*eG*eG*eA*eT*eG*e[5mC]*eA*eT*eT*eA*eA*eT*eG),0.997
11,CO-4025 (antisense eA*e[5mC]*eG*e[5mC]*eT*eA*e[5mC]*eA*eA*eT*eA*e[5mC]*eT*eT*eG*eG*eA*eT*eA*eG),0.832
12,CO-4026 (antisense e[5mC]*eT*eT*eG*eT*e[5mC]*e[5mC]*eA*eG*eT*eG*eT*eA*eA*eA*e[5mC]*eA*eA*e[5mC]*eG),1.234
13,CO-4027 (antisense eG*eT*eG*eG*eA*eG*eT*eGeT*eT*eT*e[5mC]*eT*eG*eG*eT*eT*eT*eA*eT),1.095
14,CO-4028 (antisense eT*eT*eA*eA*e[5mC]*eT*e[5mC]*eT*eT*eA*e[5mC]*eT*eT*eT*eG*eT*eG*eG*eA*eG),1.418
15,CO-4029 (antisense eA*eT*eA*e[5mC]*eT*eT*eG*eT*e[5mC]*eT*e[5mC]*eT*eG*e[5mC]eA*eA*eA*eT*e[5mC]*e[5mC]),0.908
16,CO-4030 (antisense eT*e[5mC]*eA*e[5mC]*eA*eG*eGeT*eA*eA*eG*eT*eA*eA*e[5mC]*eT*eT*eA*eT*eA),1.106
